As usually defined, the MIC is the least concentration at which growth counts as inhibited. A word on the IC50: it is the concentration that inhibits the measured activity by half.

We go through 2 compounds from article PMC9224258, “Zinc Coordination Compounds with Benzimidazole Derivatives: Synthesis, Structure, Antimicrobial Activity and Potential Anticancer Application” (International Journal of Molecular Sciences, 2022).

Experiment [1] deals with E. coli ATCC 25922. Nature of the experiment: micro-dilution broth MIC. The format is cell-based, Escherichia coli. Conditions: Escherichia coli, ATCC25922, Gram-negative, read-out: MIC. Here is the method: (§1) The cytotoxic effect of the compounds was evaluated using glioblastoma (T98G), neuroblastoma (SK-N-AS) and lung adenocarcinoma (A549) cell lines and human normal skin fibroblasts (CCD-1059Sk). T98G and SK-N-AS cells were cultured in DMEM, high glucose; A549 cells were cultured in DMEM/F12; and CCD-1059Sk cells were cultured in MEM. All media were supplemented with 10% FBS, 100 U/mL of penicillin and […] of streptomycin (PenStrep). Cells were incubated at 37 °C in a humidified atmosphere of 5% CO2. Stock solutions were prepared by dissolving the compounds in sterile dimethyl sulfoxide (DMSO) to obtain the concentration of 50 mg/mL. The cells were seeded into 96-well sterile plates (Nunc) at a density of 1 × 10^5 cells/mL. After 24 h of incubation, the medium was removed from each well, and then cells were incubated for the next 24 h with different concentrations of the tested compounds (1–100 µg/mL) in respective medium containing 2% FBS. Cytotoxicity of the compounds was evaluated using the MTT assay, which is based on the conversion of 3-(4,5-dimethylthiazol-2-yl)-2,5-diphenyltetrazolium bromide (MTT) into dark-blue formazan crystals. Briefly, after 24 h incubation of cells with varying concentrations of the tested compounds, all culture media were removed from the plates. Cells were washed with PBS, and then 100 µL of medium containing 10% MTT solution (5 mg/mL) was added to each well. After 3 h incubation, 100 µL (per well) of 10% SDS buffer solution was added to solubilize formazan crystals. After overnight incubation, the absorbance was measured at 570 nm using a microplate reader (Epoch, BioTek Instruments). Experiments were repeated twice, and the measurements in each experiment were run in triplicate. The viability of the investigated cells was expressed as a percentage of the viability of the untreated cells, and the results were transformed into IC50 values (expressed as mean ± SD). […] The complexes were screened for antibacterial and antifungal activities by micro-dilution broth method using Mueller–Hinton broth for growth of bacteria or Mueller–Hinton broth with 2% glucose for growth of fungi. Minimal inhibitory concentrations (MICs) of the tested derivatives were evaluated for the panel of the reference microorganisms from the American Type Culture Collection (ATCC), including Gram-negative bacteria (Escherichia coli ATCC 25922, Salmonella Typhimurium ATCC14028, Klebsiella pneumoniae ATCC 13883, Pseudomonas aeruginosa ATCC 9027, Proteus mirabilis ATCC 12453), Gram-positive bacteria (Staphylococcus aureus ATCC 25923, Staphylococcus epidermidis ATCC 12228, Micrococcus luteus ATCC 10240, Enterococcus faecalis ATCC 29212, Bacillus subtilis ATCC 6633, Bacillus cereus ATCC 10876) and fungi (Candida albicans ATCC 10231, Candida parapsilosis ATCC 22019, C. glabrata ATCC 90030).

Experiment [2] deals with E. faecalis ATCC 29212. Description: micro-dilution broth MIC. The format is cell-based, Enterococcus faecalis. Conditions: Enterococcus faecalis, ATCC29212; E. faecalis ATCC 29212; Gram-positive; read-out: MIC. Here is the method: as §1
(In broth dilution the organism is exposed to a series of concentrations in liquid medium.)

The test system of experiment [3] is glioblastoma (T98G) cell line. Nature of the experiment: MTT cytotoxicity assay, T98G. The format is cell-based. To be noted: Homo sapiens, T98G; MTT assay after 24 h incubation; read-out: IC50 ± SD, T98G. Here is the method:
as §1

Experiment [4] deals with human normal skin fibroblasts (CCD-1059Sk). Nature of the experiment: MTT cytotoxicity assay, normal fibroblasts. The format is cell-based. To be noted: Homo sapiens, CCD-1059Sk; MTT assay after 24 h incubation; normal cells; read-out: IC50 ± SD, CCD-1059-Sk. How it is done: as §1
On the technique in general: Tetrazolium dyes change colour on reduction, which living cells bring about.

The test system of experiment [5] is S. aureus ATCC 25923. Nature of the experiment: micro-dilution broth MIC. Conditions: Staphylococcus aureus, ATCC25923; S. aureus ATCC 25923; Gram-positive; read-out: MIC. The format is cell-based, Staphylococcus aureus. How it is done: as §1
Experiment [6] has as its system B. subtilis ATCC 6633. Description: micro-dilution broth MIC. The format is cell-based, Bacillus subtilis. Conditions: Bacillus subtilis, ATCC6633; B. subtilis ATCC 6633; Gram-positive; read-out: MIC. Here is the method:
as §1

In experiment [7] the test system is neuroblastoma (SK-N-AS) cell line. Nature of the experiment: MTT cytotoxicity assay, SK-N-AS. The format is cell-based, human. To be noted: Homo sapiens, SK-N-AS; MTT assay after 24 h incubation; read-out: IC50 ± SD, SK-N-AS. Here is the method:
as §1

The test system of experiment [8] is K. pneumoniae ATCC 13883. Description: micro-dilution broth MIC. To be noted: Klebsiella pneumoniae, ATCC13883, Gram-negative, read-out: MIC. The format is cell-based, Klebsiella pneumoniae. Here is the method:
as §1

Experiment [9] relates to S. typhimurium ATCC 14028. Nature of the experiment: micro-dilution broth MIC. The format is cell-based, Salmonella Typhimurium. Conditions: Salmonella enterica, Gram-negative, read-out: MIC. How it is done:
as §1

In experiment [10] the test system is S. epidermidis ATCC 12228. Nature of the experiment: micro-dilution broth MIC. The format is cell-based, Staphylococcus epidermidis. To be noted: Staphylococcus epidermidis, ATCC12228; S. epidermidis ATCC 12228; Gram-positive; read-out: MIC. How it is done: as §1
Experiment [11] relates to C. albicans ATCC 102231. Description: micro-dilution broth MIC. The format is cell-based, Candida albicans. Conditions: Candida albicans, ATCC102231, yeast, read-out: MIC. Here is the method:
as §1

The subject of experiment [12] is M. luteus ATCC 10240. Nature of the experiment: micro-dilution broth MIC. The format is cell-based, Micrococcus luteus. To be noted: Micrococcus luteus, ATCC10240; M. luteus ATCC 10240; Gram-positive; read-out: MIC. How it is done:
as §1

The test system of experiment [13] is C. parapsilosis ATCC 22019. Nature of the experiment: micro-dilution broth MIC. The format is cell-based, Candida parapsilosis. To be noted: Lodderomyces parapsilosis, ATCC22019, yeast, read-out: MIC. Here is the method:
as §1

For experiment [14], the system named is P. aeruginosa ATCC 9027. Nature of the experiment: micro-dilution broth MIC. The format is cell-based, Pseudomonas aeruginosa. To be noted: Pseudomonas aeruginosa, ATCC9027, Gram-negative, read-out: MIC. Here is the method: as §1
Experiment [15] deals with lung adenocarcinoma (A549) cell line. Nature of the experiment: MTT cytotoxicity assay, A549. The format is cell-based, human. To be noted: Homo sapiens, A549; MTT assay after 24 h incubation; read-out: IC50 ± SD, A549. How it is done: as §1
Experiment [16] relates to B. cereus ATCC 10876. Description: micro-dilution broth MIC. Conditions: Bacillus cereus, ATCC10876; B. cereus ATCC 10876; Gram-positive; read-out: MIC. The format is cell-based, Bacillus cereus. How it is done:
as §1

The subject of experiment [17] is P. mirabilis ATCC 12453. Description: micro-dilution broth MIC. The format is cell-based, Proteus mirabilis. Conditions: Proteus mirabilis, ATCC12453, Gram-negative, read-out: MIC. How it is done:
as §1

The subject of experiment [18] is C. glabrata ATCC 2091. Nature of the experiment: micro-dilution broth MIC. The format is cell-based. To be noted: Nakaseomyces glabratus, ATCC2091, yeast, read-out: MIC.
The test system of experiment [19] is lung adenocarcinoma (A549) cell line. More on the design: method as in earlier work. Conditions: incubated for 24 h with A549 cells; ref 77 (Zhang F. et al.); cited from earlier work.

Molecules are shown by their SMILES. ≈ marks a conversion by molar mass, not a printed value.

For the compound `Brc1cnc2[nH]c(-c3cccnc3)nc2c1` [Complex L4], the MIC in experiment [1] was more than 1000 µg/mL; in [2], 1000 µg/mL; in experiment [5], more than 1000 µg/mL; in experiment [6], 1000 µg/mL; in experiment [8], more than 1000 µg/mL; in experiment [9], more than 1000 µg/mL. Also, the MIC was 1000 µg/mL in experiment [10]; 500 µg/mL in experiment [11]; more than 1000 µg/mL in experiment [12]; 1000 µg/mL in experiment [13]; more than 1000 µg/mL in experiment [14]; 1000 µg/mL in [16]. The MIC in [17] and in [18] was more than 1000 µg/mL each time. Further, the IC50 in experiment [3], in experiment [4], in experiment [7] and in experiment [15] was more than 100 µg/mL throughout.

In the case of `COc1cc([C@@H]2c3cc4c(cc3[C@@H](O[C@@H]3O[C@@H]5CO[C@@H](C)O[C@H]5[C@H](O)[C@H]3O)[C@H]3COC(=O)[C@H]23)OCO4)cc(OC)c1O` [Etoposide, reference compound], the “median inhibitory concentration (IC50), A549” value in experiment [19] was 115 µg/mL. In addition, the IC50 in [3] is more than 100 µg/mL; in experiment [4], more than 100 µg/mL; in [7], 67.8 ± 2.03 µg/mL (≈ 115 µM); in experiment [15], more than 100 µg/mL.
